The values below come from PubChem BioAssay AID1259408 (Genetic Toxicology Data Bank (GENE-TOX), 2018).

The data set relates to GENE-TOX genotoxicity assays, various organisms and cells. The data set is described as follows: GENE-TOX mutagenicity studies. The text has this:
GENE-TOX provides genetic toxicology (mutagenicity) test data from expert peer review of open scientific literature for more than 3,000 chemicals from the United States Environmental Protection Agency (EPA). GENE-TOX was established to select assay systems for evaluation, review data in the scientific literature, and recommend proper testing protocols and evaluation procedures for these systems.
GENE-TOX covers the years 1991 - 1998. It is no longer updated.
This is an archive assay for GENE-TOX mutagenicity studies.

Calls of active or inactive are those of the source. No rule for the calls is given here.

For the molecule `Oc1ccc2ncccc2c1`, for the setting “Species/Cell Type: Salmonella typhimurium (one or more of the five standard strains: TA98, TA100, TA1535, TA1537, and TA1538), Assay Type: Histidine reverse gene mutation, Ames assay, Assay Code: SAL-, Evaluation Type: Evaluation A (Pre-1980)”, the mutagenic call is “inactive; negative”.

With `O=[N+]([O-])O`, the mutagenic call is “active; positive” (Species/Cell Type: Bacillus subtilis (H17 vs M45), Assay Type: Rec-assay, spot test, DNA effects (bacterial DNA repair), Assay Code: REW+, Evaluation Type: Evaluation A (Pre-1980)); “active; positive” (Species/Cell Type: Mammalian polychromatic erythrocytes, Assay Type: Micronucleus test, chromosome aberrations, Assay Code: MNT+U, Dose Response: Unconfirmed positive response, Evaluation Type: Evaluation B (Post-1980)); “inactive; negative” (Species/Cell Type: Syrian hamster embryo (SA7/SHE) cells, Assay Type: Cell transformation, viral enhanced, Assay Code: CT7-, Evaluation Type: Evaluation A (Pre-1980)); “no conclusion” (Species/Cell Type: Syrian hamster embryo (SHE) cells, Assay Type: Cell transformation, clonal assay, Assay Code: CTCT, Evaluation Type: Evaluation A (Pre-1980)).
